Where a name gives a salt, the structure may show the parent alone.
Tests used:
[1] = tested on: NMDAR; details: rat cortical membranes
[2] = target: T1, NR1-2A NMDAR (Homo sapiens, UniProt Q05586+Q12879); experiment: Whole-cell manual patch-clamp REL-1017 CRC in 1 mM MgCl2; details: 1 mM MgCl2, 1 μM L-glutamate, −60 mV
[3] = target: T2, NR1-2B NMDAR (Homo sapiens, UniProt Q05586+Q13224); experiment: as above; details: 1 mM MgCl2, 1 μM L-glutamate, −60 mV
[4] = target: T3, NR1-2C NMDAR (Homo sapiens, UniProt Q05586+Q14957); experiment: as above; details: 1 mM MgCl2, 1 μM L-glutamate, −60 mV
[5] = target: T4, NR1-2D NMDAR (Homo sapiens, UniProt O15399+Q05586); experiment: as above; details: 1 mM MgCl2, 1 μM L-glutamate, −60 mV
[6] = target: T2, NR1-2B NMDAR; experiment: Whole-cell automated patch-clamp (QPatch) in 1 mM Mg2+; type: cell-based; design: host or cells: CHO (CHO-hNR1-h2B), constitutive expression; details: 1 mM Mg2+
Protocol: (§1) Data were obtained in automated patch-clamp platform. […] Statistical results of one-way analysis of variance (ANOVA) followed by Tukey’s multiple comparisons test also reported p < 0.05 (*), p < 0.01 (**), p < 0.001 (***), and p < 0.0001 (****). Glu is glutamate.
(§2) For QPatch experiments, cells were grown in T-flasks first at 37 °C, 5% CO2 for 3 to 4 h, then at 30 °C, 5% CO2 for 18 to 24 h in DMEM/F12 medium with added 500 μM ketamine and 10 μg/mL tetracycline (except for NR1-2B-CHO cells) without additional antibiotics. Cells were manually detached from the culture dish and automatically dispensed in QPatch wells with extracellular solution in the presence of 1 mM Mg^2+ and 500 μM ketamine.
(§3) Holding potential was −80 mV, and voltage protocol included a depolarizing 2-s step pulse to +60 mV to check the quality of the seal and cell NMDAR expression level, followed by a 2-s ramp-up to holding potential.

[7] = target: T3, NR1-2C NMDAR; experiment: as above; type: cell-based; design: host or cells: CHO (CHO-hN1-h2C), tetracycline-induced expression; details: 1 mM Mg2+
Protocol: as §1, §2, §3

[8] = target: T4, NR1-2D NMDAR; experiment: as above; type: cell-based; design: host or cells: CHO (CHO-hN1-h2D), tetracycline-induced expression; details: 1 mM Mg2+, −30 mV to −80 mV
Protocol: as §1, §2, §3

[9] = target: T1, NR1-2A NMDAR; experiment: as above; type: cell-based; design: host or cells: CHO (CHO-hNR1-h2A), tetracycline-induced expression; details: 1 mM Mg2+
Protocol: as §1, §2, §3

[10] = 10 μM REL-1017, 1 μM L-glutamate
[11] = 10 μM REL-1017, 10 μM L-glutamate

T2 sequence (Q13224 27-1484, other chains not shown): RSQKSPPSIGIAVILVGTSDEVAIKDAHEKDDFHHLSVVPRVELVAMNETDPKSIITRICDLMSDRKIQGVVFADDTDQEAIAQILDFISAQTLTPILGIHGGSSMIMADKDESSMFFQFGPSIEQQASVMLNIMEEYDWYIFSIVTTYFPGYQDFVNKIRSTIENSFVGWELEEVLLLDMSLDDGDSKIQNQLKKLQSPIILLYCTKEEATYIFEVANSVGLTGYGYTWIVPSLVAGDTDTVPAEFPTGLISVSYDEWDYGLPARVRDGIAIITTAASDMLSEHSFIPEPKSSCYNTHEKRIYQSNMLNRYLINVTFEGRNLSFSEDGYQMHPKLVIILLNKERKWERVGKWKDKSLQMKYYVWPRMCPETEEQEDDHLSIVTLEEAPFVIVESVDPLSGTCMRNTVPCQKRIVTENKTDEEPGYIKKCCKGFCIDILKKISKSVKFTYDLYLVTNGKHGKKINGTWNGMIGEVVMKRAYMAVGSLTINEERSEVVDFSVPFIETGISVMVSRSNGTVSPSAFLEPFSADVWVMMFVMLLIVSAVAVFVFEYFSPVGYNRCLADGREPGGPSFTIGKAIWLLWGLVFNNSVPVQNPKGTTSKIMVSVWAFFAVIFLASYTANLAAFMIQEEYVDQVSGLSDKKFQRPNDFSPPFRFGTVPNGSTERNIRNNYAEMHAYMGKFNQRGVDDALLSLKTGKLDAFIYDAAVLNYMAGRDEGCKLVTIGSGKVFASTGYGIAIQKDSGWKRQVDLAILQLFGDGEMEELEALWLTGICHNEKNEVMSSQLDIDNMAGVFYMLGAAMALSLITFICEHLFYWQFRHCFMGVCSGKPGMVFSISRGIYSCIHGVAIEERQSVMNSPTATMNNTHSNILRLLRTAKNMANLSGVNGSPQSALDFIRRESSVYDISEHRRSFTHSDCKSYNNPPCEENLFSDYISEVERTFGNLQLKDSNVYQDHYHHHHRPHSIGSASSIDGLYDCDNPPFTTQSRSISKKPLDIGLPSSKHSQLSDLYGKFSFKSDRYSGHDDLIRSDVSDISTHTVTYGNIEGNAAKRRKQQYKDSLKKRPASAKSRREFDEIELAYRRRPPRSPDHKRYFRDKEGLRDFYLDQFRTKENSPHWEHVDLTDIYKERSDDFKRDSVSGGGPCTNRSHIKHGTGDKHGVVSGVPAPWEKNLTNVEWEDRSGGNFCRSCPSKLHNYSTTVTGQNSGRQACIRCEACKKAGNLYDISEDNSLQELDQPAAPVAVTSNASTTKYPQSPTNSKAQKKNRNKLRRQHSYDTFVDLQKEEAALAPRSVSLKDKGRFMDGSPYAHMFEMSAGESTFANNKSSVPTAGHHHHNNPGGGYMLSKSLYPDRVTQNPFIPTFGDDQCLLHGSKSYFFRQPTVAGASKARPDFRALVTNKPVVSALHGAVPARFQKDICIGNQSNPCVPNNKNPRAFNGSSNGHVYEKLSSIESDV
T4 sequence (O15399 28-1336, other chains not shown): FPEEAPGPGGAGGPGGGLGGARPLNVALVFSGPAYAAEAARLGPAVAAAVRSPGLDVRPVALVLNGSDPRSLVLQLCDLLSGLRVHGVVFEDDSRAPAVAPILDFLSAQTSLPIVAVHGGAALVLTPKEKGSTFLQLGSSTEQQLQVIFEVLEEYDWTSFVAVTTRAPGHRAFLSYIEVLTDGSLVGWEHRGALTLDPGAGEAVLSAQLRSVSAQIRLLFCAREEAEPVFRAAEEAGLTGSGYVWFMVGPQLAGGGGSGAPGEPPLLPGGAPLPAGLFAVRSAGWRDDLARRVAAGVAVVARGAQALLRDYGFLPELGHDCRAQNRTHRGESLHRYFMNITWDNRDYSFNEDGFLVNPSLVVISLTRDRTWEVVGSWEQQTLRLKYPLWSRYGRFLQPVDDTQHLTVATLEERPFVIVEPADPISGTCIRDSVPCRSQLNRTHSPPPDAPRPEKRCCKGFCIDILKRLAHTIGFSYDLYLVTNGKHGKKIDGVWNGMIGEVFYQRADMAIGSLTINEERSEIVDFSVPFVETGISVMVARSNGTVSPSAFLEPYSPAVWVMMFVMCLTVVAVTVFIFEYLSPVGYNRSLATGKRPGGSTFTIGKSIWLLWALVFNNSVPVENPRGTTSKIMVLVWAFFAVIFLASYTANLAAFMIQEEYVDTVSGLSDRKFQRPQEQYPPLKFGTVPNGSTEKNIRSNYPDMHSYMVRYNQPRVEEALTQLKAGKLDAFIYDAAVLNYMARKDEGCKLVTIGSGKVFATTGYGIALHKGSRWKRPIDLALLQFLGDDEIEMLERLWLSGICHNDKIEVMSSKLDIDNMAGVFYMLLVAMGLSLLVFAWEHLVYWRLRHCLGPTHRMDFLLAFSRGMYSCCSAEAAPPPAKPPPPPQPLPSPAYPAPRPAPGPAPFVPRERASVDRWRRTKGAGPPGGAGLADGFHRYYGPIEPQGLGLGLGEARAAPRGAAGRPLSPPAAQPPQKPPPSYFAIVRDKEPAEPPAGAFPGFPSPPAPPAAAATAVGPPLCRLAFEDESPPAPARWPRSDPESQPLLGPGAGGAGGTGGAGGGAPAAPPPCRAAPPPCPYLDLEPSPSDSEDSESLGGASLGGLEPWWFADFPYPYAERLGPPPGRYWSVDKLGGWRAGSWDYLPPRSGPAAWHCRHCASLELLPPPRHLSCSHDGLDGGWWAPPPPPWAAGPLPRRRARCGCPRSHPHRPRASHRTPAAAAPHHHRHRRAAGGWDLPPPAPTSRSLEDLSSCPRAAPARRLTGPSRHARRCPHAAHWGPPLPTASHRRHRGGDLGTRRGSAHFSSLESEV
T1 sequence (Q12879 23-1464, other chains not shown): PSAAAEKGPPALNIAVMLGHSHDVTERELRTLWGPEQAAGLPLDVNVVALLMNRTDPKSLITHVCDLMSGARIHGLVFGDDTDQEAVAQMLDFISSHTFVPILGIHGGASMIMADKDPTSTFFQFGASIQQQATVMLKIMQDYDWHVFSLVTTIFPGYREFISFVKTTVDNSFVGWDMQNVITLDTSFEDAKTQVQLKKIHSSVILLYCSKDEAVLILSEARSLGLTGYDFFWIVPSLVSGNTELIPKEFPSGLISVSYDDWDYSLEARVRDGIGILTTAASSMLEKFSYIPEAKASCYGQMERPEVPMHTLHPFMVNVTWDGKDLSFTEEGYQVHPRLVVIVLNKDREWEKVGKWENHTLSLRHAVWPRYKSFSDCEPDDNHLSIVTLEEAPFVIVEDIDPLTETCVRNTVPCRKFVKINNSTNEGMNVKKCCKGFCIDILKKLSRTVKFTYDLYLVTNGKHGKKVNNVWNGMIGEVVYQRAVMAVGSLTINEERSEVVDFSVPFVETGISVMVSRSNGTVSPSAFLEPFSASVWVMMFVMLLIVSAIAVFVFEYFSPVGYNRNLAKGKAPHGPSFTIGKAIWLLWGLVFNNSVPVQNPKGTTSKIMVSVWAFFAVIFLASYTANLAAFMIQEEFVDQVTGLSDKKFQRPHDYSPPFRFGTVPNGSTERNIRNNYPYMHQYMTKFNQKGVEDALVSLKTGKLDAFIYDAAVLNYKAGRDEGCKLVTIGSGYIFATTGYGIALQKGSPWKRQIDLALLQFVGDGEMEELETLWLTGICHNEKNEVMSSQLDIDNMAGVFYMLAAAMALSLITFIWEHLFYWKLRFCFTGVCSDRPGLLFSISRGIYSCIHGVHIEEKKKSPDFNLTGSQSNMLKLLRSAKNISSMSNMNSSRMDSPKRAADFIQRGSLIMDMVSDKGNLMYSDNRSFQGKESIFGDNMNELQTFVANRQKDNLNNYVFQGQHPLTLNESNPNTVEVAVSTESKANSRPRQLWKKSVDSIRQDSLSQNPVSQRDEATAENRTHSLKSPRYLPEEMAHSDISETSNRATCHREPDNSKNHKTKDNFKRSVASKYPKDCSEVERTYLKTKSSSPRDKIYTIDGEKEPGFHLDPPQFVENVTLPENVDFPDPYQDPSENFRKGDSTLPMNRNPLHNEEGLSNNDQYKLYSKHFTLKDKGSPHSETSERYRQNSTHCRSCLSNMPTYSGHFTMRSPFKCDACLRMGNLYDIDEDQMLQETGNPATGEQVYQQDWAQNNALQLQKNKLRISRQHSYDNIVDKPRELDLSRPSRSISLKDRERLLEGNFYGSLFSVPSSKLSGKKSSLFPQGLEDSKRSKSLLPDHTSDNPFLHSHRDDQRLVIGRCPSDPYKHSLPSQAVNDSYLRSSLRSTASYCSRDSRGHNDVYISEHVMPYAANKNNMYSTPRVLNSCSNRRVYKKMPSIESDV

| Structure (SMILES) | IC50 ([1]; [3H]TCP 4 nM) | Ki ([1]; [3H]TCP, Cheng and Prusoff) | Hill Slope [2] | Hill Slope [3] | Hill Slope [4] | Hill Slope [5] | effect on L-glutamate-elicited current [6, 10] | effect on L-glutamate-elicited current [6, 11] | effect on L-glutamate-elicited current [7, 10] | effect on L-glutamate-elicited current [7, 11] | effect on L-glutamate-elicited current [8, 10] | effect on L-glutamate-elicited current [8, 11] | effect on L-glutamate-elicited current [9, 10] | effect on L-glutamate-elicited current ([9]; 10 μM REL-1017, 10 μM L-glutamate, −30 mV to −80 mV) |
| --- | --- | --- | --- | --- | --- | --- | --- | --- | --- | --- | --- | --- | --- | --- |
| COc1ccc2c(c1)[C@]13CCCC[C@@H]1[C@H](C2)N(C)CC3 [Dextromethorphan, dextromethorphan] | 2.06 µM | 1.4 µM |  |  |  |  |  |  |  |  |  |  |  |  |
| CCC(=O)C(C[C@H](C)N(C)C)(c1ccccc1)c1ccccc1 [REL-1017, dextromethadone HCl] |  |  | 1.06 | 1.17 | 1.49 | 1.42 | inactive | significantly reduced the elicited current only at −30 mV, −40 mV, and −50 mV | inactive | inactive | significantly reduced | significantly reduced | inactive | significantly reduced |

From publication PMC9414551 (Pharmaceuticals, 2022)
